Data as given in the supplement of paper PMC5662764.
± gives the standard deviation of the averaged measurements.

Assays:
Experiment in all cases: normalised growth rate inhibition (GR value) relative to DMSO control (GR (1 = untreated growth, 0 = cytostasis, <0 = cytotoxic)); higher = less growth inhibition
Details in all cases: 72 h
[1] = test system: SKBR3
Experimental: (§1)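 Breast cancer cell lines (BT-20, Hs 578T, MCF 10A, MCF7, MDA-MB-231, SK-BR-3) were plated in 384-well plates and treated 24 h later with drugs at six concentrations (0.04-10 µM). Viable cells were counted by Hoechst/dead-cell-stain imaging at 0 and 72 h. Counts were normalised to DMSO controls on the same plate to give the relative cell count and the growth-rate inhibition (GR) value; technical plate triplicates were averaged for each biological replicate.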

[2] = test system: MCF10A
Experimental: as §1

[3] = test system: MDAMB231
Experimental: as §1

[4] = test system: MCF7
Experimental: as §1

[5] = test system: BT20
Experimental: as §1

[6] = test system: HS578T
Experimental: as §1

Compound | normalised growth rate inhibition ([1]; 0.04 µM) | normalised growth rate inhibition ([1]; 0.12 µM) | normalised growth rate inhibition ([1]; 0.37 µM) | normalised growth rate inhibition ([1]; 1.11 µM) | normalised growth rate inhibition ([1]; 3.33 µM) | normalised growth rate inhibition ([1]; 10 µM) | normalised growth rate inhibition ([2]; 0.04 µM) | normalised growth rate inhibition ([2]; 0.12 µM) | normalised growth rate inhibition ([2]; 0.37 µM) | normalised growth rate inhibition ([2]; 1.11 µM) | normalised growth rate inhibition ([2]; 3.33 µM) | normalised growth rate inhibition ([2]; 10 µM) | normalised growth rate inhibition ([3]; 0.04 µM) | normalised growth rate inhibition ([3]; 0.12 µM) | normalised growth rate inhibition ([3]; 0.37 µM) | normalised growth rate inhibition ([3]; 1.11 µM) | normalised growth rate inhibition ([3]; 3.33 µM) | normalised growth rate inhibition ([3]; 10 µM) | normalised growth rate inhibition ([4]; 0.04 µM) | normalised growth rate inhibition ([4]; 0.12 µM) | normalised growth rate inhibition ([4]; 0.37 µM) | normalised growth rate inhibition ([4]; 1.11 µM) | normalised growth rate inhibition ([4]; 3.33 µM) | normalised growth rate inhibition ([4]; 10 µM) | normalised growth rate inhibition ([5]; 0.04 µM) | normalised growth rate inhibition ([5]; 0.12 µM) | normalised growth rate inhibition ([5]; 0.37 µM) | normalised growth rate inhibition ([5]; 1.11 µM) | normalised growth rate inhibition ([5]; 3.33 µM) | normalised growth rate inhibition ([5]; 10 µM) | normalised growth rate inhibition ([6]; 0.04 µM) | normalised growth rate inhibition ([6]; 0.12 µM) | normalised growth rate inhibition ([6]; 0.37 µM) | normalised growth rate inhibition ([6]; 1.11 µM) | normalised growth rate inhibition ([6]; 3.33 µM) | normalised growth rate inhibition ([6]; 10 µM)
Cc1cc(C(=O)NOCCO)c(Nc2ccc(I)cc2F)n(C)c1=O [AZD-8330] | 0.497 ± 0.12 | 0.64 ± 0.045 | 0.708 ± 0.055 | 0.76 ± 0.064 | 0.778 ± 0.048 | 0.814 ± 0.076 | 0.0964 ± 0.11 | 0.0999 ± 0.1 | 0.113 ± 0.08 | 0.131 ± 0.068 | 0.142 ± 0.075 | 0.143 ± 0.1 | 0.0852 ± 0.054 | 0.0627 ± 0.033 | 0.0584 ± 0.026 | 0.0698 ± 0.013 | 0.0774 ± 0.044 | 0.0933 ± 0.0085 | 0.331 ± 0.077 | 0.33 ± 0.043 | 0.342 ± 0.041 | 0.41 ± 0.049 | 0.405 ± 0.029 | 0.465 ± 0.025 | 0.685 ± 0.018 | 0.741 ± 0.034 | 0.748 ± 0.0083 | 0.739 ± 0.025 | 0.786 ± 0.01 | 0.803 ± 0.022 | 0.244 ± 0.066 | 0.212 ± 0.072 | 0.217 ± 0.11 | 0.213 ± 0.11 | 0.217 ± 0.1 | 0.197 ± 0.11
CC[C@@H]1C(=O)N(C)c2cnc(Nc3ccc(C(=O)NC4CCN(C)CC4)cc3OC)nc2N1C1CCCC1 [BI-2536] | -0.136 ± 0.22 | -0.151 ± 0.18 | -0.109 ± 0.23 | -0.15 ± 0.23 | -0.158 ± 0.2 | -0.208 ± 0.25 | -0.0473 ± 0.13 | -0.0192 ± 0.14 | 0.00696 ± 0.13 | 1.1e-05 ± 0.11 | -0.0132 ± 0.098 | 0.00366 ± 0.082 | 0.0155 ± 0.14 | 0.00874 ± 0.1 | 0.00566 ± 0.14 | 0.0242 ± 0.14 | 0.0274 ± 0.12 | -0.0537 ± 0.25 | 0.101 ± 0.044 | 0.0593 ± 0.017 | 0.0551 ± 0.044 | 0.0492 ± 0.066 | 0.0223 ± 0.047 | -0.191 ± 0.038 | -0.177 ± 0.15 | -0.203 ± 0.19 | -0.198 ± 0.17 | -0.163 ± 0.16 | -0.143 ± 0.14 | -0.137 ± 0.17 | -0.128 ± 0.11 | -0.125 ± 0.14 | -0.0972 ± 0.11 | -0.0687 ± 0.11 | -0.0582 ± 0.1 | -0.125 ± 0.16
O=C(Nc1cccc(Nc2ncc(Br)c(NCCc3cnc[nH]3)n2)c1)N1CCCC1 [BX-912] | 0.724 ± 0.1 | 0.719 ± 0.089 | 0.175 ± 0.19 | -0.0702 ± 0.08 | -0.0412 ± 0.053 | -0.0312 ± 0.089 | 0.95 ± 0.0022 | 0.92 ± 0.062 | 0.648 ± 0.3 | 0.206 ± 0.067 | 0.172 ± 0.068 | 0.0883 ± 0.057 | 0.903 ± 0.0098 | 0.901 ± 0.083 | 0.694 ± 0.32 | 0.404 ± 0.23 | 0.194 ± 0.14 | -0.0228 ± 0.27 | 0.816 ± 0.053 | 0.866 ± 0.058 | 0.731 ± 0.17 | 0.459 ± 0.1 | 0.293 ± 0.063 | 0.0193 ± 0.03 | 0.8964 ± 0.0089 | 0.943 ± 0.034 | 0.936 ± 0.034 | 0.939 ± 0.032 | 0.839 ± 0.12 | 0.355 ± 0.13 | 0.967 ± 0.021 | 0.906 ± 0.045 | 0.756 ± 0.16 | 0.375 ± 0.042 | 0.143 ± 0.076 | -0.103 ± 0.14
